Laboratory results as given in patent publication US20240108740A1, “THERAPEUTIC COMPOSITIONS INCLUDING SPN10 AND USES THEREOF” (Stealth BioTherapeutics Inc., priority 2022, published 2024).
Residues, ends and D or L forms follow the SMILES beside them.

Experiments:
[1] = system: Sprague-Dawley rats; assay: Example 56: diabetic retinopathy in STZ and HFD/STZ rats; type: in vivo, rat
Method: A rat model of diabetes will be established by combination of 6-week HFD and either 1) a low-dose STZ (30 mg/kg) injection, or 2) a single high dose of STZ (65 mg/kg) in Sprague-Dawley rats. See generally, Srinivasan, et al., Pharm. Res. 52(4):313-320 (2005). Controls will be maintained on normal rat chow (NRC). Treatment groups will be as follows: • Group A: 12 HFD/STZ peptide conjugates 10 mg/kg s.c • Group B: 12 HFD/STZ peptide conjugates 3 mg/kg s.c. • Group C: 12 HFD/STZ peptide conjugates 1 mg/kg s.c. • Group D: 10 HFD/STZ control vehicle. s.c. • Group E: 10 NRC control vehicle. s.c. • Group F: 12 HFD/STZ aromatic-cationic peptide (an equivalent molar dose of aromatic-cationic peptide based on concentration of the aromatic-cationic peptide administered in the 10 mg/kg s.c.q.d. peptide conjugate group) • Group G: 12 HFD/STZ aromatic-cationic peptide (an equivalent molar dose of aromatic-cationic peptide based on concentration of the aromatic-cationic peptide administered in the 3 mg/kg s.c.q.d. peptide conjugate group) • Group H: 12 HFD/STZ aromatic-cationic peptide (an equivalent molar dose of aromatic-cationic peptide based on concentration of the aromatic-cationic peptide administered in the 1 mg/kg s.c.q.d. peptide conjugate group) • Group I: 12 HFD/STZ SPN10 (an equivalent molar dose of SPN10 based on concentration of SPN10 administered in the 10 mg/kg s.c.q.d. peptide conjugate group) • Group J: 12 HFD/STZ SPN10 (an equivalent molar dose of SPN10 based on concentration of SPN10 administered in the 3 mg/kg s.c.q.d. peptide conjugate group) • Group K: 12 HFD/STZ SPN10 (an equivalent molar dose of SPN10 based on concentration of SPN10 administered in the 1 mg/kg s.c.q.d. peptide conjugate group). • Group L: SPN10(s) in combination with aromatic-cationic peptides (e.g., an equivalent molar dose of SPN10 based on the concentration of SPN10 administered in the 10 mg/kg s.c.q.d. peptide conjugate treatment group and an equivalent molar dose of aromatic-cationic peptide based on the concentration of aromatic-cationic peptide administered in the 10 mg/kg s.c.q.d. peptide conjugate treatment group) • Group M: SPN10(s) in combination with aromatic-cationic peptides (e.g., an equivalent molar dose of SPN10 based on the concentration of SPN10 administered in the 3 mg/kg s.c.q.d. peptide conjugate treatment group and an equivalent molar dose of aromatic-cationic peptide based on the concentration of aromatic-cationic peptide administered in the 3 mg/kg s.c.q.d. peptide conjugate treatment group) • Group N: SPN10(s) in combination with aromatic-cationic peptides (e.g., an equivalent molar dose of SPN10 based on the concentration of SPN10 administered in the 1 mg/kg s.c.q.d. peptide conjugate treatment group and an equivalent molar dose of aromatic-cationic peptide based on the concentration of aromatic-cationic peptide administered in the 1 mg/kg s.c.q.d. peptide conjugate treatment group)
Eyes will be harvested and subjects assessed for cataract formation, epithelial changes, integrity of the blood-retinal barrier, retinal microvascular structure, and retinal tight junction structure using methods known in the art.

[2] = system: Sprague Dawley rats; assay: Example 37: acute renal injury caused by ischemia-reperfusion; type: in vivo, rat
Method: […] Sprague Dawley rats (250-300 g) will be assigned to one of the following groups: (1) sham surgery (no I/R); (2) I/R+saline vehicle; (3) I/R+peptide conjugates; (4) I/R+aromatic-cationic peptides; (5) I/R+SPN10(s); (6) I/R+SPN10(s) and aromatic-cationic peptides. Peptide conjugates (3 mg/kg in saline); aromatic-cationic peptides (an equivalent molar dose of aromatic-cationic peptide based on the concentration of the aromatic-cationic peptide administered in the peptide conjugate treatment group); SPN10(s) (an equivalent molar dose of SPN10 based on the concentration of SPN10 administered in the peptide conjugate treatment group) or SPN10(s) in combination with aromatic-cationic peptides (e.g., an equivalent molar dose of SPN10 based on the concentration of SPN10 administered in the peptide conjugate treatment group and an equivalent molar dose of aromatic-cationic peptide based on the concentration of aromatic-cationic peptide administered in the peptide conjugate treatment group) will be administered 30 minutes before ischemia and immediately before reperfusion. Control animals will be given saline alone according to the same schedule.
Rats will be anesthetized with a mixture of ketamine (90 mg/kg, i.p.) and xylazine (4 mg/kg, i.p.). […] Renal function will be determined by measuring levels of blood urea nitrogen (BUN) and serum creatinine (BioAssay Systems DIUR-500 and DICT-500).
Renal Morphologic Examination: Kidneys will be fixed in 10% neutral-buffered formalin and embedded in paraffin wax for sectioning. Three-micron sections will be stained with hematoxylin-eosin (H&E) and periodic acid-Schiff (PAS), and analyzed by light microscopy. Lesions will be scored based on 1) mitosis and necrosis of individual cells, 2) necrosis of all cells in adjacent proximal convoluted tubules with survival of surrounding tubules, 3) necrosis confined to the distal third of the proximal convoluted tubule with a band of necrosis extending across the inner cortex, and 4) necrosis affecting all three segments of the proximal convoluted tubule. […]

With N=C(N)NCCC[C@H](NC(=O)[C@@H](N)Cc1c[nH]c2ccccc12)C(=O)N[C@@H](Cc1c[nH]c2ccccc12)C(=O)N[C@@H](CCCCN)C(N)=O [SPN10, H-L-Trp-L-Arg-L-Trp-L-Lys-NH2] (H-WRWK-NH2) the “non-uniform distribution of tight junctions (claudin-5) along retinal vessels” value ([1]; HFD/STZ subjects) was “prevent, reverse, or attenuate this effect”, the retinal microvascular changes ([1]; STZ or HFD/STZ rats) was “reduce retinal microvascular changes” and the epithelial cellular changes ([1]; STZ rat model and HFD/STZ rat model) was “reduce epithelial cellular changes”. For the same molecule, the “inner blood-retinal barrier function” value ([1]; compared to control subjects) was “improved inner blood-retinal barrier function”, the “cataract formation in the lenses of diabetic rats” value ([1]; rat, in vivo) was “prevention or reversal of cataract formation” and the “BUN and serum creatinine values” ([2]; 30 minutes before ischemia and immediately before reperfusion, 24 hours of reperfusion) was “improve BUN and serum creatinine values”. The “tubular cell apoptosis after ischemia and reperfusion” value ([2]; rat, in vivo) was “prevent tubular cell apoptosis” and the “tubular cell injury after ischemia and reperfusion” value ([2]; rat, in vivo) was “prevent tubular cell injury”.
